Inhibition of growth and Activity data for 19 compounds are collected here from ChEMBL document CHEMBL4808250, “Synthesis and biological evaluation of substituted amide derivatives of C4-ageratochromene dimer analog” (Bioorg Med Chem Lett, 2021).

Calls of active or inactive are those of the source. The rule behind the calls is not given here.

In one data set the test system is PA-1. In words: Antiproliferative activity against human PA-1 cells assessed as reduction in cell growth at 50 ug/ml measured by MTT assay. The format is functional. The conditions noted are these: read-out: GI.
The next data set deals with MCF7. In words: Antiproliferative activity against ER-positive human MCF7 cells assessed as reduction in cell growth at 50 ug/ml measured by MTT assay. Format: functional. The note with it: read-out: GI.
The next data set has as its system MDA-MB-231. In words: Antiproliferative activity against ER-negative human MDA-MB-231 cells assessed as reduction in cell growth at 50 ug/ml measured by MTT assay. Format: functional. The conditions noted are these: read-out: GI.
Data set [1] concerns Calvarial osteoblast. Description: Induction of osteoblast differentiation in mouse calvarial osteoblasts assessed as increase in ALP activity at 1 pM incubated for 48 hrs by spectrophotometric analysis. The format is functional, cell-based.
For data set [2], the system named is Calvarial osteoblast. Description: Induction of osteoblast differentiation in mouse calvarial osteoblasts assessed as increase in bone mineralization at 1 pM incubated for 21 days by alizarin-red S dye based colorimetric analysis. The note with it: time 21.0 day. Format: functional, cell-based.
The subject of data set [3] is Calvarial osteoblast. In words: Induction of osteogenic differentiation in mouse calvarial osteoblasts assessed as increase in BMP2 mRNA expression level at 1 to 100 pM after 24 to 48 hrs by RT-qPCR analysis. Format: functional, cell-based. The conditions noted are these: dose 1-100 pM, time 24-48 hrs.
Data set [4] has as its system Calvarial osteoblast. In words: Induction of osteogenic differentiation in mouse calvarial osteoblasts assessed as increase in RUNX2 mRNA expression level at 1 to 100 pM after 24 to 48 hrs by RT-qPCR analysis. The format is functional, cell-based. The conditions noted are these: dose 1-100 pM, time 24-48 hrs.
For data set [5], the system named is Calvarial osteoblast. In words: Induction of osteogenic differentiation in mouse calvarial osteoblasts assessed as increase in Type-1 collagen mRNA expression level at 1 to 100 pM after 24 to 48 hrs by RT-qPCR analysis. The conditions noted are these: dose 1-100 pM, time 24-48 hrs. The format is functional, cell-based. In general terms: In qPCR the cycle at which signal appears reflects the starting amount.

Data set [6] deals with Calvarial osteoblast. Description: Cytotoxicity against mouse calvarial osteoblasts assessed as reduction in cell viability at 0.000001 to 1 uM measured after 48 hrs by MTT assay. Format: cell-based. The note with it: dose lower 1e-06 µM, dose upper 1 µM. Background: Tetrazolium dyes change colour on reduction, which living cells bring about.
The subject of data set [7] is Calvarial osteoblast. In words: Induction of osteoblast differentiation in mouse calvarial osteoblasts assessed as increase in ALP activity at 100 pM incubated for 48 hrs by spectrophotometric analysis. Format: functional, cell-based.

Take `COc1ccc2c(c1)OC(C)(C)C/C2=C1/CC(C)(C)Oc2cc(OCCCCC(=O)N3CCCC3)ccc21`: the inhibition of growth at 50 µg/mL in the data set on PA-1 turned out to be 26.6%; in the data set with MCF7, 25.2%; in the data set with MDA-MB-231 it was 36.5%.
In the case of `COc1ccc2c(c1)OC(C)(C)C/C2=C1/CC(C)(C)Oc2cc(OCCCCCC(=O)N3CCCC3)ccc21`, the inhibition of growth at 50 µg/mL in the data set with MCF7 stood at 25.2%.
Take `COc1ccc2c(c1)OC(C)(C)C/C2=C1/CC(C)(C)Oc2cc(OCCCCCC(=O)NCc3ccccn3)ccc21`: in the data set on MDA-MB-231, the inhibition of growth at 50 µg/mL stood at 36.5%.
For `COc1ccc2c(c1)OC(C)(C)C/C2=C1/CC(C)(C)Oc2cc(OCCCCC(=O)N3CCN(C)CC3)ccc21`, the inhibition of growth at 50 µg/mL in the data set on PA-1 came out at 26.6%; in the data set on MCF7, 25.2%; in the data set with MDA-MB-231, 36.5%.
Regarding `COc1ccc2c(c1)OC(C)(C)C/C2=C1/CC(C)(C)Oc2cc(OCCCC(=O)NCCCCCCNC(=O)OC(C)(C)C)ccc21`, the result with Calvarial osteoblast [1] was Active. Moreover, the values for the inhibition of growth at 50 µg/mL in the data set with PA-1 and with MDA-MB-231 were 26.6% and 36.5%, respectively.
On to `COc1ccc2c(c1)OC(C)(C)C/C2=C1/CC(C)(C)Oc2cc(OCCCCCC(=O)N3CCN(C)CC3)ccc21`, for which the inhibition of growth at 50 µg/mL in the data set with PA-1 was found to be 26.6%; in the data set with MCF7 it was 25.2%.
Consider `CNCCCCNC(=O)CCCCOc1ccc2c(c1)OC(C)(C)C/C2=C1/CC(C)(C)Oc2cc(OC)ccc21`, for which, in the data set on Calvarial osteoblast [1], the outcome was Active. The inhibition of growth at 50 µg/mL was 25.2% in the data set with MCF7 and 36.5% with MDA-MB-231.
With `COc1ccc2c(c1)OC(C)(C)C/C2=C1/CC(C)(C)Oc2cc(OCCCC(=O)N3CCCC3)ccc21`, the outcome in the data set on Calvarial osteoblast [1] was Active. Moreover, the inhibition of growth at 50 µg/mL in the data set with PA-1 turned out to be 26.6%; in the data set on MCF7, 25.2%; with MDA-MB-231 it was 36.5%.
As for `COc1ccc2c(c1)OC(C)(C)C/C2=C1/CC(C)(C)Oc2cc(OCCCCC(=O)NCc3ccccn3)ccc21`, the results for the inhibition of growth at 50 µg/mL with PA-1, in the data set on MCF7 and with MDA-MB-231 were 26.6%, 25.2% and 36.5%, respectively.
On to `COc1ccc2c(c1)OC(C)(C)C/C2=C1/CC(C)(C)Oc2cc(OCCCC(=O)N3CCCCC3)ccc21`, for which the outcome with Calvarial osteoblast [1], in the data set with Calvarial osteoblast [2], with Calvarial osteoblast [3], in the data set with Calvarial osteoblast [4] and in the data set on Calvarial osteoblast [5] was Active. The inhibition of growth at 50 µg/mL in the data set with PA-1 was found to be 68.3%; with MCF7, 26.1%; with MDA-MB-231, 15.9%. The Activity result with Calvarial osteoblast [6] was “Non-Toxic”.
With `COc1ccc2c(c1)OC(C)(C)C/C2=C1/CC(C)(C)Oc2cc(OCCCCCC(=O)NCCCCCCNC(=O)OC(C)(C)C)ccc21`, the result with Calvarial osteoblast [7] was Active. The inhibition of growth at 50 µg/mL with PA-1 came to 26.6%; with MCF7 it was 25.2%; with MDA-MB-231, 36.5%.
In the case of `CNCCCCNC(=O)CCCOc1ccc2c(c1)OC(C)(C)C/C2=C1/CC(C)(C)Oc2cc(OC)ccc21`, the inhibition of growth at 50 µg/mL in the data set on MDA-MB-231 stood at 36.5%.
As for `COc1ccc2c(c1)OC(C)(C)C/C2=C1/CC(C)(C)Oc2cc(OCCCC(=O)NCc3ccccn3)ccc21`, the inhibition of growth at 50 µg/mL in the data set with PA-1 stood at 26.6%.
Consider `COc1ccc2c(c1)OC(C)(C)C/C2=C1/CC(C)(C)Oc2cc(OCCCCCC(=O)N3CCCCC3)ccc21`, for which the inhibition of growth at 50 µg/mL with PA-1 amounted to 26.6%; with MDA-MB-231 it was 36.5%.
For the compound `COc1ccc2c(c1)OC(C)(C)C/C2=C1/CC(C)(C)Oc2cc(OCCCCC(=O)N3CCCCC3)ccc21`, the inhibition of growth at 50 µg/mL amounted to 26.6% in the data set with PA-1, 25.2% with MCF7 and 36.5% in the data set with MDA-MB-231.
Taken in the same sequence, the figures for `CNCCCCNC(=O)CCCCCOc1ccc2c(c1)OC(C)(C)C/C2=C1/CC(C)(C)Oc2cc(OC)ccc21` were 26.6%, 25.2% and 36.5%.
The corresponding values for `COc1ccc2c(c1)OC(C)(C)C/C2=C1/CC(C)(C)Oc2cc(O)ccc21` are 26.6%, 25.2% and 36.5%.
For `COc1ccc2c(c1)OC(C)(C)C/C2=C1/CC(C)(C)Oc2cc(OC)ccc21`, the inhibition of growth at 50 µg/mL with PA-1 is 26.6%; with MCF7, 25.2%; with MDA-MB-231, 36.5%.
For `COc1ccc2c(c1)OC(C)(C)C/C2=C1/CC(C)(C)Oc2cc(OCCCC(=O)N3CCN(C)CC3)ccc21`, the outcome with Calvarial osteoblast [7] was Active. In addition, the inhibition of growth at 50 µg/mL in the data set on MCF7 is 25.2%.
